Values of other authors in paper PMC8287028 (Frontiers in Veterinary Science, 2021).

System: Factor Xa
Set-up: method as in PMID 35442563
Settings: 19 sick dogs, post-treatment monitoring; cited from earlier work

O=C(NC[C@H]1CN(c2ccc(N3CCOCC3=O)cc2)C(=O)O1)c1ccc(Cl)s1 [rivaroxaban]
dogs with aXa activities below the range associated with positive clinical outcomes in humans: 8/19
dogs with aXa activities exceeding the range associated with positive clinical outcomes in humans: 8/19
